Laboratory results taken from the kinase profiling compilation of Christmann-Franck et al. (2016).

Tests used:
Experiment in all cases: radiometric filter-binding kinase assay, Kinase HotSpot
Details in all cases: compound 0.5 µM; ATP 10 µM
PDGFRB (human) = PDGFRB (human) (UniProt P09619)
ACVR1 (human) = ACVR1 (human) (UniProt Q04771)
MAP3K7 TAB1 (human) = MAP3K7 TAB1 (human) (UniProt O43318+Q15750)
TSSK1B (human) = TSSK1B (human) (UniProt Q9BXA7)
PRKCG (human) = PRKCG (human) (UniProt P05129)
RPS6KA2 KD1 KD2 (human) = RPS6KA2 KD1 KD2 (human) (UniProt Q15349)
RPS6KA2 KD1 KD2 (human), sequence (Q15349 whole entry, looked up): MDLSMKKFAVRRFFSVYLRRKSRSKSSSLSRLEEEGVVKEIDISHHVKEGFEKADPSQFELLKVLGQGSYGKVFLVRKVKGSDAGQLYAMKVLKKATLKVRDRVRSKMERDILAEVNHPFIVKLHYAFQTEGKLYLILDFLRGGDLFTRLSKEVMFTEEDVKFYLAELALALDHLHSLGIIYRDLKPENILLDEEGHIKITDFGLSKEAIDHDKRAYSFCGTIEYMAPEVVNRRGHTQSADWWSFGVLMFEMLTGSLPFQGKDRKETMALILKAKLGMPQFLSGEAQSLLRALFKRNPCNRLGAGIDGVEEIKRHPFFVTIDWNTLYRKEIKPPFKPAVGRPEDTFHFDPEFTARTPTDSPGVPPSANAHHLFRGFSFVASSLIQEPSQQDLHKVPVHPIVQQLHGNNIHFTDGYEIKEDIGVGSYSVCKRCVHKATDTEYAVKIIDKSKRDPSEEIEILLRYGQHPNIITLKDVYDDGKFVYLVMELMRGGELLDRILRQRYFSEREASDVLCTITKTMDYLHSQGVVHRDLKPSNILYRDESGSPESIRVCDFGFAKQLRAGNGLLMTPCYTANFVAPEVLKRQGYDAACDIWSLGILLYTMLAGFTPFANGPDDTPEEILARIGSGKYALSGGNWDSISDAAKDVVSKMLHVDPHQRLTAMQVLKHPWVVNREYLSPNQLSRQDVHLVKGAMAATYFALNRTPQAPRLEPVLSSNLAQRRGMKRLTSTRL

PLK3 (human) = PLK3 (human) (UniProt Q9H4B4)
GRK4 (human) = GRK4 (human) (UniProt P32298)
GRK4 (human), sequence (P32298 whole entry, looked up): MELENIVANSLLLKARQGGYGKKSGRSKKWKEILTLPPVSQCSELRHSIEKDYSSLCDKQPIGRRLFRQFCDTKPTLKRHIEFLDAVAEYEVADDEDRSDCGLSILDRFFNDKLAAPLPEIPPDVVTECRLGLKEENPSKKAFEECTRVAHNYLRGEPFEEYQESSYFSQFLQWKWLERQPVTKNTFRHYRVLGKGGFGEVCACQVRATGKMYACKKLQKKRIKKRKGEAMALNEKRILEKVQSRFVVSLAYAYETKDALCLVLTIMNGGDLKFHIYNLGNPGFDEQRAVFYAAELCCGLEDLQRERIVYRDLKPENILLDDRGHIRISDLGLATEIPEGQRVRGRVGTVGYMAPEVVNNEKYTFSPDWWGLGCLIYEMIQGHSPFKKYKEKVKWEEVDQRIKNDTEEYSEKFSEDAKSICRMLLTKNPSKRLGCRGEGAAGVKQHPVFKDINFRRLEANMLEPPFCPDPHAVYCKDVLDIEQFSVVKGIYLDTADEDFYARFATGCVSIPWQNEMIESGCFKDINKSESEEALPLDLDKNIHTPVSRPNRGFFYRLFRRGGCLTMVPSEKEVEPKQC

MAP3K10 (human) = MAP3K10 (human) (UniProt Q02779)
MST1R (human) = MST1R (human) (UniProt Q04912)
MAPKAPK3 (human) = MAPKAPK3 (human) (UniProt Q16644)
TEK (human) = TEK (human) (UniProt Q02763)
CDK1 CCNB1 (human) = CDK1 CCNB1 (human) (UniProt P06493+P14635)
TSSK2 (human) = TSSK2 (human) (UniProt Q96PF2)
PAK3 (human) = PAK3 (human) (UniProt O75914)
BLK (human) = BLK (human) (UniProt P51451)
BLK (human), sequence (P51451 whole entry, looked up): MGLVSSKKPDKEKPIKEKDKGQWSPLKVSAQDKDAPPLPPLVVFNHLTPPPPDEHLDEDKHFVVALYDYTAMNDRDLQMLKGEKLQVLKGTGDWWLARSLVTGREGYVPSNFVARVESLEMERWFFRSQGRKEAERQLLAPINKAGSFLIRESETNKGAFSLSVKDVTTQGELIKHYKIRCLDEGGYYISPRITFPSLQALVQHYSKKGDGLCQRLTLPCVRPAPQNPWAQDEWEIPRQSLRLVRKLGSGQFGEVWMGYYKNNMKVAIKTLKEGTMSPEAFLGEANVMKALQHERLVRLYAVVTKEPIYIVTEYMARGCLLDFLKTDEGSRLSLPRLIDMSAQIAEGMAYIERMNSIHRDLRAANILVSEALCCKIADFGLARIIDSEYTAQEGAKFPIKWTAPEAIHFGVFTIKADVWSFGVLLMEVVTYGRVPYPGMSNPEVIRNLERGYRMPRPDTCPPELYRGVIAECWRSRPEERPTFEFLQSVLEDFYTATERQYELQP

CAMK1D (human) = CAMK1D (human) (UniProt Q8IU85)
PAK2 (human) = PAK2 (human) (UniProt Q13177)
[1] = biological target: TYK2 JH1 catalytic (human) (UniProt P29597)
MAPK14 (human) = MAPK14 (human) (UniProt Q16539)
MAPK14 (human), sequence (Q16539 whole entry, looked up): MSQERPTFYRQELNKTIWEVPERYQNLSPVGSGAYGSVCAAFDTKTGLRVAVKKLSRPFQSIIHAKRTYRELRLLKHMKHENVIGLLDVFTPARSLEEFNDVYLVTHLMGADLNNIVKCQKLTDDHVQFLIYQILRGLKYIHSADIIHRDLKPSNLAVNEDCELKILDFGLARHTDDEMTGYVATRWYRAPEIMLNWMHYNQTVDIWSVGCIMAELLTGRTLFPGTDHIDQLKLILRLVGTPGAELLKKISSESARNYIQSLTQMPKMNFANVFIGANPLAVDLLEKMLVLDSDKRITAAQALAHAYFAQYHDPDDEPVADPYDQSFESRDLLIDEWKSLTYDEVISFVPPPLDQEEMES

MUSK (human) = MUSK (human) (UniProt O15146)
HIPK4 (human) = HIPK4 (human) (UniProt Q8NE63)
HIPK4 (human), sequence (Q8NE63 whole entry, looked up): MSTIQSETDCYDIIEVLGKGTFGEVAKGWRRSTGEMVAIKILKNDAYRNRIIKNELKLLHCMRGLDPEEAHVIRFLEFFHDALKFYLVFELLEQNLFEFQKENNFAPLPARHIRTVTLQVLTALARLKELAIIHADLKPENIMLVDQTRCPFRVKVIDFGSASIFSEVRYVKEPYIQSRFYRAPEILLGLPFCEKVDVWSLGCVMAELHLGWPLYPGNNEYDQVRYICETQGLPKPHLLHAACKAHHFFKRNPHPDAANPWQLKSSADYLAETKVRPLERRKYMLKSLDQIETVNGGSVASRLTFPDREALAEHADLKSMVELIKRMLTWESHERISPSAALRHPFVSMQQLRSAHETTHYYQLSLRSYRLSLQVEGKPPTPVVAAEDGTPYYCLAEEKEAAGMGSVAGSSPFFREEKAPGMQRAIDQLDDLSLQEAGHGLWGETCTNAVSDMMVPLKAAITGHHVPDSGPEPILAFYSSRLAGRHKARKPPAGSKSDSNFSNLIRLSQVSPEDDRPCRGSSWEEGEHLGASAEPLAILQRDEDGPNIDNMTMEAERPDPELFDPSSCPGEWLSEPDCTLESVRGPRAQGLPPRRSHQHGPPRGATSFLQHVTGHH

RPS6KA6 KD1 KD2 (human) = RPS6KA6 KD1 KD2 (human) (UniProt Q9UK32)
TNK2 (human) = TNK2 (human) (UniProt Q07912)
TNK2 (human), sequence (Q07912 whole entry, looked up): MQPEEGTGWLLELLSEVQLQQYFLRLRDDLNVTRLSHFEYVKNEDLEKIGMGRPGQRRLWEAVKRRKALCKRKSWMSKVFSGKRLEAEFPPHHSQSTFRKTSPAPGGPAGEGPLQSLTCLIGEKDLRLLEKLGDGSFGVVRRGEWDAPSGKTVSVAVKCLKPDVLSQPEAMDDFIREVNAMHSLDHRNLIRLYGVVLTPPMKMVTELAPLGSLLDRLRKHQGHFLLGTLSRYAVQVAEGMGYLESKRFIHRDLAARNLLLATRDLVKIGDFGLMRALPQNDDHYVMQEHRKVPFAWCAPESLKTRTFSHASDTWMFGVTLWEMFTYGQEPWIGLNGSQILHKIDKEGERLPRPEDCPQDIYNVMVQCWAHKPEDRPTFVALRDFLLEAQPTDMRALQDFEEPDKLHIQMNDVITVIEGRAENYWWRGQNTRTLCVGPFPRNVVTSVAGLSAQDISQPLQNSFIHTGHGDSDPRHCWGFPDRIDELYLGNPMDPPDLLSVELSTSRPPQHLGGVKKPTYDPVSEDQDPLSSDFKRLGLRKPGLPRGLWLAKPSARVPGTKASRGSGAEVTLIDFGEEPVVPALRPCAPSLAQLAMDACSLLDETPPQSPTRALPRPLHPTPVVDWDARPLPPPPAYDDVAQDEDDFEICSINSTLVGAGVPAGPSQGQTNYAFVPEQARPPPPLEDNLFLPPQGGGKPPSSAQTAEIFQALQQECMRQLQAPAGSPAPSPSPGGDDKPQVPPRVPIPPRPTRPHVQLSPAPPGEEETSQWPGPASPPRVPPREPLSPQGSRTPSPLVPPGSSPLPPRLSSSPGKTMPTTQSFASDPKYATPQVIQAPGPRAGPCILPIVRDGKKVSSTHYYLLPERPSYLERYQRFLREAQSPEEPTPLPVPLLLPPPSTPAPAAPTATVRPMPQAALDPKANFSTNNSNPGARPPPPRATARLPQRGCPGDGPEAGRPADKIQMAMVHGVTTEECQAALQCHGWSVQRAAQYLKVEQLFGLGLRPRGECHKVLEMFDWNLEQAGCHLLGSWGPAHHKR

FGFR4 (human) = FGFR4 (human) (UniProt P22455)
FGFR4 (human), sequence (P22455 whole entry, looked up): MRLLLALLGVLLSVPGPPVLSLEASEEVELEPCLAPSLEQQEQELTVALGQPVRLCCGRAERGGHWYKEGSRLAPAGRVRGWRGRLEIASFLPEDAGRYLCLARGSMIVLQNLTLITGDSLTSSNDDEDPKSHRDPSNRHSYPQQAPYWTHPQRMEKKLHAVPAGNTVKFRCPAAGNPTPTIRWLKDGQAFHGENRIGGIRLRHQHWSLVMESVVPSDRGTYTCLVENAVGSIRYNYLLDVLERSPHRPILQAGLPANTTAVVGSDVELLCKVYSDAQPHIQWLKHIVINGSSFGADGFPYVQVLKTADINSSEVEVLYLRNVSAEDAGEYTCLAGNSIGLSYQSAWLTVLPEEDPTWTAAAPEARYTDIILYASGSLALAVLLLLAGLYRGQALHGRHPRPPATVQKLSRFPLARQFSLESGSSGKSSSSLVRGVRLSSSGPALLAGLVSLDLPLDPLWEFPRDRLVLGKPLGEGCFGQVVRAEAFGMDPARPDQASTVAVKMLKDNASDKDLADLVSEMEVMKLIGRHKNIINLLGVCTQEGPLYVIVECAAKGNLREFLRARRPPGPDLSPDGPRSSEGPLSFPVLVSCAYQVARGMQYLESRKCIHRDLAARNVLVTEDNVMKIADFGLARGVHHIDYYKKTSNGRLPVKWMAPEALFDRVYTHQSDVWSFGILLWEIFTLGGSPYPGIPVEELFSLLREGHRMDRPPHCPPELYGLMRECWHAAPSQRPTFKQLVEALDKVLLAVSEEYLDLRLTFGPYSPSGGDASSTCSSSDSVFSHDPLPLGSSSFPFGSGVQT

MYLK (human) = MYLK (human) (UniProt Q15746)
CDK6 CCND3 (human) = CDK6 CCND3 (human) (UniProt P30281+Q00534)
TAOK3 (human) = TAOK3 (human) (UniProt Q9H2K8)
VRK1 (human) = VRK1 (human) (UniProt Q99986)
IGF1R (human) = IGF1R (human) (UniProt P08069)
HIPK1 (human) = HIPK1 (human) (UniProt Q86Z02)
NTRK1 (human) = NTRK1 (human) (UniProt P04629)
CHUK (human) = CHUK (human) (UniProt O15111)
RET (human) = RET (human) (UniProt P07949)
ERBB4 (human) = ERBB4 (human) (UniProt Q15303)
KIT (human) = KIT (human) (UniProt P10721)
MAP2K2 (human) = MAP2K2 (human) (UniProt P36507)
MYLK2 (human) = MYLK2 (human) (UniProt Q9H1R3)
NEK1 (human) = NEK1 (human) (UniProt Q96PY6)
JAK3 JH1 JH2 (human) = JAK3 JH1 JH2 (human) (UniProt P52333)
FLT3 (human) = FLT3 (human) (UniProt P36888)

TSSK1B (human), sequence (Q9BXA7 whole entry, looked up): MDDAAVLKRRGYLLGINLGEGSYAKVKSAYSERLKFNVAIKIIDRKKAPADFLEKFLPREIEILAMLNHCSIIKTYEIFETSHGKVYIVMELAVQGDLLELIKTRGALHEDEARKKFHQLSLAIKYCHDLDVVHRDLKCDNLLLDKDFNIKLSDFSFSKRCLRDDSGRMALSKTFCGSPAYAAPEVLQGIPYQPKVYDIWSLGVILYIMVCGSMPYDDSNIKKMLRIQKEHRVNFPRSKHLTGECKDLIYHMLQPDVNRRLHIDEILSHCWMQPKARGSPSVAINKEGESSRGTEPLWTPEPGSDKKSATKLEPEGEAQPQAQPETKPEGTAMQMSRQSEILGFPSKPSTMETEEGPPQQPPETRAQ

Compound Cc1nc(-c2ccccc2)c(-c2ccncc2)o1 has a residual activity (PDGFRB (human)) of 109%, a residual activity (ACVR1 (human)) of 104% and a residual activity (MAP3K7 TAB1 (human)) of 93.6%. The residual activity (TSSK1B (human)) was 108%, the residual activity (PRKCG (human)) was 101% and the residual activity (RPS6KA2 KD1 KD2 (human)) was 93%. For the same compound, the residual activity (PLK3 (human)) was 95.4%, the residual activity (GRK4 (human)) was 94.3% and the residual activity (MAP3K10 (human)) was 101%. For the same compound, the residual activity (MST1R (human)) was 95.9%, the residual activity (MAPKAPK3 (human)) was 94.7% and the residual activity (TEK (human)) was 101%. The residual activity (CDK1 CCNB1 (human)) was 90.8%, the residual activity (TSSK2 (human)) was 90.1% and the residual activity (PAK3 (human)) was 100%. It also gave a residual activity (BLK (human)) of 95.4%, a residual activity (CAMK1D (human)) of 93.9% and a residual activity (PAK2 (human)) of 82.3%. It also gave a residual activity [1] of 109%, a residual activity (MAPK14 (human)) of 76.3% and a residual activity (MUSK (human)) of 95.9%. It also gave a residual activity (HIPK4 (human)) of 102%, a residual activity (RPS6KA6 KD1 KD2 (human)) of 115% and a residual activity (TNK2 (human)) of 97.7%. The residual activity (FGFR4 (human)) was 76.5%, the residual activity (MYLK (human)) was 101% and the residual activity (CDK6 CCND3 (human)) was 109%. It also gave a residual activity (TAOK3 (human)) of 99%, a residual activity (VRK1 (human)) of 98.5% and a residual activity (IGF1R (human)) of 99.9%. The residual activity (HIPK1 (human)) was 102%, the residual activity (NTRK1 (human)) was 94.3% and the residual activity (CHUK (human)) was 105%. The residual activity (RET (human)) was 97.5%, the residual activity (ERBB4 (human)) was 92.2% and the residual activity (KIT (human)) was 93.7%. The residual activity (MAP2K2 (human)) was 106%, the residual activity (MYLK2 (human)) was 100% and the residual activity (NEK1 (human)) was 103%. It also gave a residual activity (JAK3 JH1 JH2 (human)) of 90.7% and a residual activity (FLT3 (human)) of 95.2%.

Compound CN(C)CCCn1cc(C2=C(c3c[nH]c4ccccc34)C(=O)NC2=O)c2ccccc21 has a residual activity (PDGFRB (human)) of 78.1%, a residual activity (ACVR1 (human)) of 96.3% and a residual activity (MAP3K7 TAB1 (human)) of 93.6%. For the same compound, the residual activity (TSSK1B (human)) was 89.8%, the residual activity (PRKCG (human)) was 17.6% and the residual activity (RPS6KA2 KD1 KD2 (human)) was 1.4%. The residual activity (PLK3 (human)) was 94.9%, the residual activity (GRK4 (human)) was 84.5% and the residual activity (MAP3K10 (human)) was 81.8%. The residual activity (MST1R (human)) was 109%, the residual activity (MAPKAPK3 (human)) was 95.3% and the residual activity (TEK (human)) was 99.7%. For the same compound, the residual activity (CDK1 CCNB1 (human)) was 92%, the residual activity (TSSK2 (human)) was 97.3% and the residual activity (PAK3 (human)) was 92.1%. The residual activity (BLK (human)) was 87%, the residual activity (CAMK1D (human)) was 68% and the residual activity (PAK2 (human)) was 96.2%. For the same compound, the residual activity [1] was 79.3%, the residual activity (MAPK14 (human)) was 90.7% and the residual activity (MUSK (human)) was 71.9%. It also gave a residual activity (HIPK4 (human)) of 113%, a residual activity (RPS6KA6 KD1 KD2 (human)) of 3.97% and a residual activity (TNK2 (human)) of 94.7%. For the same compound, the residual activity (FGFR4 (human)) was 89%, the residual activity (MYLK (human)) was 23.2% and the residual activity (CDK6 CCND3 (human)) was 73.3%. The residual activity (TAOK3 (human)) was 67.6%, the residual activity (VRK1 (human)) was 95.5% and the residual activity (IGF1R (human)) was 91.7%. For the same compound, the residual activity (HIPK1 (human)) was 96.6%, the residual activity (NTRK1 (human)) was 108% and the residual activity (CHUK (human)) was 105%. For the same compound, the residual activity (RET (human)) was 93.4%, the residual activity (ERBB4 (human)) was 87.7% and the residual activity (KIT (human)) was 69.5%. The residual activity (MAP2K2 (human)) was 98.9%, the residual activity (MYLK2 (human)) was 73.9% and the residual activity (NEK1 (human)) was 92.5%. It also gave a residual activity (JAK3 JH1 JH2 (human)) of 81.5% and a residual activity (FLT3 (human)) of 5.6%.

In the case of O=C1c2ccccc2-c2nc3nnnn3nc21, the residual activity (PDGFRB (human)) is reported as 11.3%, the residual activity (ACVR1 (human)) is reported as 93.1% and the residual activity (MAP3K7 TAB1 (human)) is reported as 89.9%. For the same compound, the residual activity (TSSK1B (human)) was 88.7%, the residual activity (PRKCG (human)) was 59.3% and the residual activity (RPS6KA2 KD1 KD2 (human)) was 89.1%. The residual activity (PLK3 (human)) was 28.5%, the residual activity (GRK4 (human)) was 68.4% and the residual activity (MAP3K10 (human)) was 94.6%. It also gave a residual activity (MST1R (human)) of 93.6%, a residual activity (MAPKAPK3 (human)) of 76% and a residual activity (TEK (human)) of 4.27%. For the same compound, the residual activity (CDK1 CCNB1 (human)) was 48%, the residual activity (TSSK2 (human)) was 75% and the residual activity (PAK3 (human)) was 97.1%. For the same compound, the residual activity (BLK (human)) was 109%, the residual activity (CAMK1D (human)) was 93.9% and the residual activity (PAK2 (human)) was 96.2%. It also gave a residual activity [1] of 77.2%, a residual activity (MAPK14 (human)) of 88.6% and a residual activity (MUSK (human)) of 107%. It also gave a residual activity (HIPK4 (human)) of 97.9%, a residual activity (RPS6KA6 KD1 KD2 (human)) of 62.3% and a residual activity (TNK2 (human)) of 44.9%. For the same compound, the residual activity (FGFR4 (human)) was 58%, the residual activity (MYLK (human)) was 94.1% and the residual activity (CDK6 CCND3 (human)) was 9.93%. The residual activity (TAOK3 (human)) was 90.8%, the residual activity (VRK1 (human)) was 90.5% and the residual activity (IGF1R (human)) was 91.1%. It also gave a residual activity (HIPK1 (human)) of 99.3%, a residual activity (NTRK1 (human)) of 76.6% and a residual activity (CHUK (human)) of 72%. It also gave a residual activity (RET (human)) of 101%, a residual activity (ERBB4 (human)) of 50.2% and a residual activity (KIT (human)) of 22.2%. The residual activity (MAP2K2 (human)) was 94.7%, the residual activity (MYLK2 (human)) was 88.1% and the residual activity (NEK1 (human)) was 46.3%. For the same compound, the residual activity (JAK3 JH1 JH2 (human)) was 90.4% and the residual activity (FLT3 (human)) was 100%.
